From patent US9517989B2, “2-cycloalkyl resorcinol cannabinergic ligands” (priority 2012, dated 2016)
Where two headings read alike, the source gives them in different places.

Columns and labels:
CB2 receptor = CB2 receptor (UniProt P47936); assay: CB2 receptor binding affinity (Ki); conditions: read-out: CB2 receptor Ki
Procedure: Some disclosed compounds were tested for CB1 and CB2 receptor binding affinity (Tables 1, 2, 3, 4, 5, 6). As used herein “binding affinity” is represented by the Ki value. The Ki value is the affinity constant and describes the affinity of the compound for the receptor. The lower the Ki value, the higher the affinity of the compound for the receptor. A detailed description of the methods used to test “binding affinity” of compounds is given in Makriyannis, et al., US 2007, 0135388 and in Papahatjis, et al. J. Med. Chem. (2007) 4048, the content of each of which is hereby incorporated by reference.

CB1 = CB1 (Rattus norvegicus, UniProt P20272); assay: CB1 receptor binding affinity (Ki)
CB1, sequence (P20272 whole entry): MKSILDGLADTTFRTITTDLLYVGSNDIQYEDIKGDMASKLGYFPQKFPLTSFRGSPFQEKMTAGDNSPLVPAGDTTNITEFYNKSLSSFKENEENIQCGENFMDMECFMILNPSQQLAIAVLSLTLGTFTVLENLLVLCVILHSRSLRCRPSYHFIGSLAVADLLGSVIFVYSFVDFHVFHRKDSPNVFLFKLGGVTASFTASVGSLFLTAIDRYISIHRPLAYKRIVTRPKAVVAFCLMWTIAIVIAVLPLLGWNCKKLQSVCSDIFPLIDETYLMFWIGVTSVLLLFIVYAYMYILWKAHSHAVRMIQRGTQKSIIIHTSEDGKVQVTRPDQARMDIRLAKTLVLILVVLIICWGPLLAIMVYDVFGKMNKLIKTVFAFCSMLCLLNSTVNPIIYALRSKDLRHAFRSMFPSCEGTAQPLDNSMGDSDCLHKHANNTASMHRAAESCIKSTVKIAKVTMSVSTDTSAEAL
Procedure: Some disclosed compounds were tested for CB1 and CB2 receptor binding affinity (Tables 1, 2, 3, 4, 5, 6). As used herein “binding affinity” is represented by the Ki value. The Ki value is the affinity constant and describes the affinity of the compound for the receptor. […] A detailed description of the methods used to test “binding affinity” of compounds is given in Makriyannis, et al., US 2007, 0135388 and in Papahatjis, et al. J. Med. Chem. (2007) 4048, the content of each of which is hereby incorporated by reference.

| Molecule | Ki (CB2 receptor) [µM] | Ki (CB1; read-out: CB1 receptor Ki) [µM] | Ki (CB1) [µM] |
| --- | --- | --- | --- |
| 2-[(1S,6S)-3-(Hydroxymethyl)-6-(1-methylethenyl)-2-cyclohexen-1-yl]-5-[1-(1,2-cis-hexen-1-yl)-cyclopent-1-yl]resorcinol [Compound 4.5] | 0.0027 | 0.029 |  |
| C=C(C)[C@H]1CCC(C)=C[C@@H]1c1c(O)cc(CCCCC)cc1O [(+)-CBD, Cannabidiol, reference compound] | > 0.2 |  |  |
| C=C(C)[C@@H]1CCC(C)=C[C@H]1c1c(O)cc(CCCCC)cc1O [(−)-CBD, Cannabidiol, reference compound] | > 0.2 |  |  |
| C=C(C)[C@H]1CCC(COC(C)=O)=C[C@@H]1c1c(O)cc(C(C)(C)CCCCCC)cc1O [Compound 3.2, 2-[(1S,6S)-3-(Acetoxymethyl)-6-(1-methylethenyl)-2-cyclohexen-1-yl]-5-(1,1-dimethylheptyl)resorcinol] | 0.062 |  | 0.069 |
| C=C(C)[C@H]1CCC(COC(C)=O)=C[C@@H]1c1c(O)cc(C2(CCCCCC)CC2)cc1O [Compound 3.3, 2-[(1S,6S)-3-(Acetoxymethyl)-6-(1-methylethenyl)-2-cyclohexen-1-yl]-5-(1-hexyl-cyclopropyl)resorcinol] | 0.105 |  | 0.088 |
| C=C(C)[C@H]1CCC(COC(C)=O)=C[C@@H]1c1c(O)cc(C2(CCCCCC)CCCC2)cc1O [Compound 3.4, 2-[(1S,6S)-3-(Acetoxymethyl)-6-(1-methylethenyl)-2-cyclohexen-1-yl]-5-(1-hexyl-1-cyclopentyl)resorcinol] | 0.065 |  | 0.277 |
| C=C(C)[C@H]1CCC(COC(C)=O)=C[C@@H]1c1c(O)cc(C2(/C=C\CCCC)CCCC2)cc1O [Compound 3.5, 2-[(1S,6S)-3-(Acetoxymethyl)-6-(1-methylethenyl)-2-cyclohexen-1-yl]-5-[1-(1,2-cis-hexen-1-yl)-cyclopent-1-yl]resorcinol] | 0.012 |  | 0.071 |
| C=C(C)[C@H]1CCC(COC(C)=O)=C[C@@H]1c1c(O)cc(C2(CCCCCC)SCCS2)cc1O [Compound 3.6, 2-[(1S,6S)-3-(Acetoxymethyl)-6-(1-methylethenyl)-2-cyclohexen-1-yl]-5-(2-hexyl-1,3-dithiolane-2-yl)resorcinol] | 0.097 | 0.326 |  |
| C=C(C)[C@H]1CCC(COC(C)=O)=C[C@@H]1c1c(O)cc(C2(CCCCCBr)CCCC2)cc1O [Compound 3.7, 2-[(1S,6S)-3-(Acetoxymethyl)-6-(1-methylethenyl)-2-cyclohexen-1-yl]-5-[(5-bromopentyl)cyclopentyl)resorcinol] | 0.025 |  | 0.051 |
| C=C(C)[C@H]1CCC(COC(C)=O)=C[C@@H]1c1c(O)cc(C2(CCCCCBr)CCC2)cc1O [Compound 3.8, 2-[(1S,6S)-3-(Acetoxymethyl)-6-(1-methylethenyl)-2-cyclohexen-1-yl]-5-[(5-bromopentyl)cyclobutyl)resorcinol] | 0.035 |  | 0.05 |
| C=C(C)[C@H]1CCC(COC(C)=O)=C[C@@H]1c1c(O)cc(C23CC4CC(CC(C4)C2)C3)cc1O [Compound 3.9, 2-[(1S,6S)-3-(Acetoxymethyl)-6-(1-methylethenyl)-2-cyclohexen-1-yl]-5-(1-adamantyl)resorcinol] | 0.135 |  | 0.185 |
| C=C(C)[C@H]1CCC(COC(C)=O)=C[C@@H]1c1c(O)cc(C(C)(C)CCCBr)cc1O [Compound 3.10, 2-[(1S,6S)-3-(Acetoxymethyl)-6-(1-methylethenyl)-2-cyclohexen-1-yl]-5-(5-bromo-2-methypentan-2-yl)resorcinol] | 0.014 |  | 0.62 |
| C=C(C)[C@H]1CCC(COC(C)=O)=C[C@@H]1c1c(O)cc(C(C)(C)CCCCBr)cc1O [Compound 3.11, 2-[(1S,6S)-3-(Acetoxymethyl)-6-(1-methylethenyl)-2-cyclohexen-1-yl]-5-(6-bromo-2-methylhexan-2-yl)resorcinol] | 0.037 |  | 0.191 |
| C=C(C)[C@H]1CCC(COC(C)=O)=C[C@@H]1c1c(O)cc(C(C)(C)CCCCCBr)cc1O [Compound 3.12, 2-[(1S,6S)-3-(Acetoxymethyl)-6-(1-methylethenyl)-2-cyclohexen-1-yl]-5-(7-bromo-2-methylheptan-2-yl)resorcinol] | 0.027 |  | 0.029 |
| C=C(C)[C@H]1CCC(COC(C)=O)=C[C@@H]1c1c(O)cc(C2(/C=C\CCCC)CCOCC2)cc1O [Compound 3.14, 2-[(1S,6S)-3-(Acetoxymethyl)-6-(1-methylethenyl)-2-cyclohexen-1-yl]-5-[1-(1,2-cis-hexen-1-yl)-tetrahydro-2H-pyran-4-yl]resorcinol] | 0.038 |  | 0.376 |
| C=C(C)[C@H]1CCC(CO)=C[C@@H]1c1c(O)cc(C2(CCCCCBr)CCCC2)cc1O [Compound 4.7, 2-[(1S,6S)-3-(Hydroxymethyl)-6-(1-methylethenyl)-2-cyclohexen-1-yl]-5-[(5-bromopentyl)cyclopentyl)resorcinol] | 0.005 |  | 0.016 |
| C=C(C)[C@H]1CCC(CO)=C[C@@H]1c1c(O)cc(C2(CCCCCBr)CCC2)cc1O [Compound 4.8, 2-[(1S,6S)-3-(Hydroxymethyl)-6-(1-methylethenyl)-2-cyclohexen-1-yl]-5-[(5-bromopentyl)cyclobutyl)resorcinol] | 0.011 |  | 0.014 |
| C=C(C)[C@H]1CCC(CO)=C[C@@H]1c1c(O)cc(C23CC4CC(CC(C4)C2)C3)cc1O [Compound 4.9, 2-[(1S,6S)-3-(Hydroxymethyl)-6-(1-methylethenyl)-2-cyclohexen-1-yl]-5-(1-adamantyl)resorcinol] | 0.049 |  | 0.449 |
| C=C(C)[C@@H]1CCC(COC(C)=O)=C[C@H]1c1c(O)cc(C(C)(C)CCCCCC)cc1O [Compound 31.2, 2-[(1R,6R)-3-(Acetoxymethyl)-6-(1-methylethenyl)-2-cyclohexen-1-yl]-5-(1,1-dimethylheptyl)resorcinol] | 0.375 |  | 0.221 |
| C=C(C)[C@@H]1CCC(COC(C)=O)=C[C@H]1c1c(O)cc(C(C)(C)CCCCCCBr)cc1O [Compound 31.13, 2-[(1R,6R)-3-(Acetoxymethyl)-6-(1-methylethenyl)-2-cyclohexen-1-yl]-5-(8-bromo-2-methyloct-2-yl)resorcinol] | 0.171 |  | 0.205 |
| C=C(C)[C@H]1CCC(COC(C)=O)=C[C@@H]1c1c(O)cc(C2(CCCCCC#N)CCC2)cc1O [Compound 33, 2-[(1S,6S)-3-(Acetoxymethyl)-6-(1-methylethenyl)-2-cyclohexen-1-yl]-5-[(5-cyanopentyl)cyclobutyl)resorcinol] | 0.015 |  | 0.065 |
| C=C(C)[C@H]1CCC(CO)=C[C@@H]1c1c(O)cc(C2(CCCCCN=[N+]=[N-])CCC2)cc1O [Compound 37, 2-[(1S,6S)-3-(Hydroxymethyl)-6-(1-methylethenyl)-2-cyclohexen-1-yl]-5-[(5-azidopentyl)cyclobutyl)resorcinol] | 0.0072 |  | 0.022 |
| CCCCCc1cc(O)c([C@H]2C=C(C)[C@H]3C[C@@H]2C3(C)C)c(O)c1 [Compound 40.1, (+)-2-[(1R,4S,5S)-2,6,6-trimethylbicyclo[3.1.1]hept-2-en-4-yl]-5-pentyl-resorcinol, reference compound] | 0.047 |  | 0.671 |
| CCCCCCC1(c2cc(O)c([C@H]3C=C(C)[C@H]4C[C@@H]3C4(C)C)c(O)c2)CCCC1 [Compound 40.4, (+)-2-[(1R,4S,5S)-2,6,6-trimethylbicylco[3.1.1]hept-2-en-4-yl]-5-(1-hexyl-1-cyclopentyl)resorcinol] | 0.017 |  | 0.023 |
